Read-outs that look alike come from different tables or passages of the source.
Experiments:
[1] = target: T1, MEKK3 (Homo sapiens, UniProt Q99759); assay: PanQinase kinase panel: MEKK3; assay type: biochemical; details: read-out: INHIBITORY EFFECT @ 1 uM: MEKK3
T1 construct: purchased Reaction Biology Europe GmbH
T1 sequence (Q99759 1-626): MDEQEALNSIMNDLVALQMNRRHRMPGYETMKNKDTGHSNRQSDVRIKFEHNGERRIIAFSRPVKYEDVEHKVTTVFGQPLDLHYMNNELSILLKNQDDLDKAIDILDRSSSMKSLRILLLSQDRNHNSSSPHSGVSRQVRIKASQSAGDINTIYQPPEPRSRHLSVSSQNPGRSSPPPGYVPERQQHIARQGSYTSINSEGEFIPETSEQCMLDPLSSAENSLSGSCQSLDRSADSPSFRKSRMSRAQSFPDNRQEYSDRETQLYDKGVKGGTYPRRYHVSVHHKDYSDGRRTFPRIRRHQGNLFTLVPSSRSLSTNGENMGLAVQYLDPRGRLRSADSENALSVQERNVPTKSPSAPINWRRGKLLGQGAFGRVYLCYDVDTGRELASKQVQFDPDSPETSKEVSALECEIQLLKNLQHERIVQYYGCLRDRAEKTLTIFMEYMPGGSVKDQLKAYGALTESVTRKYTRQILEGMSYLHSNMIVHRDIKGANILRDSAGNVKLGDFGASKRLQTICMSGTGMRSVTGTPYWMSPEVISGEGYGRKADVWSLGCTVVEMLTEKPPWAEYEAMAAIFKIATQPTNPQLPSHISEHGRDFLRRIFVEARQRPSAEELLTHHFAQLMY
Experimental: (§1) Screening procedures were performed in accordance with the company's on-line protocol [accessed on-line Mar.
(§2) For each kinase, the median value of the cpm of three wells was defined as “low control” (n=3). This value reflects unspecific binding of radioactivity to the plate in the absence of a protein kinase but in the presence of the substrate. Additionally, for each kinase the median value of the cpm of three other wells was taken as the “high control,” i.e. full activity in the absence of any inhibitor (n=3). The difference between high and low control of each enzyme was taken as 100% activity.
(§3) As part of the data evaluation the low control of each kinase was subtracted from the high control value as well as from their corresponding “compound values”. The residual activity (in %) for each compound well was calculated by using the following formula: Res. Activity (%)=100×[(signal of compound−low control)/(high control−low control)].

[2] = target: T2, FES (Homo sapiens, UniProt P07332); assay: PanQinase kinase panel: FES; assay type: biochemical; details: read-out: INHIBITORY EFFECT @ 1 uM: FES
T2 construct: purchased Reaction Biology Europe GmbH
Experimental: as §1, §2, §3

[3] = target: T3, LYN (Homo sapiens, UniProt P07948); assay: PanQinase kinase panel: LYN; assay type: biochemical; details: read-out: INHIBITORY EFFECT @ 1 uM: LYN
T3 construct: purchased Reaction Biology Europe GmbH
Experimental: as §1, §2, §3

[4] = target: T4, EGFR (Homo sapiens, UniProt P00533); assay: PanQinase kinase panel: EGFR; assay type: biochemical; details: read-out: INHIBITORY EFFECT @ 1 uM: EGFR
T4 construct: purchased Reaction Biology Europe GmbH
Experimental: as §1, §2, §3

[5] = target: T5, FRK (Homo sapiens, UniProt P42685); assay: PanQinase kinase panel: FRK; assay type: biochemical; details: read-out: INHIBITORY EFFECT @ 1 uM: FRK
T5 construct: purchased Reaction Biology Europe GmbH
Experimental: as §1, §2, §3

[6] = target: T6, INSR (Homo sapiens, UniProt P06213); assay: PanQinase kinase panel: INSR; assay type: biochemical; details: read-out: INHIBITORY EFFECT @ 1 uM: INSR
T6 construct: purchased Reaction Biology Europe GmbH
Experimental: as §1, §2, §3

[7] = target: T7, MEKK2 (Homo sapiens, UniProt Q9Y2U5); assay: PanQinase kinase panel: MEKK2; assay type: biochemical; details: read-out: INHIBITORY EFFECT @ 1 uM: MEKK2
T7 construct: purchased Reaction Biology Europe GmbH
T7 sequence (Q9Y2U5 1-619): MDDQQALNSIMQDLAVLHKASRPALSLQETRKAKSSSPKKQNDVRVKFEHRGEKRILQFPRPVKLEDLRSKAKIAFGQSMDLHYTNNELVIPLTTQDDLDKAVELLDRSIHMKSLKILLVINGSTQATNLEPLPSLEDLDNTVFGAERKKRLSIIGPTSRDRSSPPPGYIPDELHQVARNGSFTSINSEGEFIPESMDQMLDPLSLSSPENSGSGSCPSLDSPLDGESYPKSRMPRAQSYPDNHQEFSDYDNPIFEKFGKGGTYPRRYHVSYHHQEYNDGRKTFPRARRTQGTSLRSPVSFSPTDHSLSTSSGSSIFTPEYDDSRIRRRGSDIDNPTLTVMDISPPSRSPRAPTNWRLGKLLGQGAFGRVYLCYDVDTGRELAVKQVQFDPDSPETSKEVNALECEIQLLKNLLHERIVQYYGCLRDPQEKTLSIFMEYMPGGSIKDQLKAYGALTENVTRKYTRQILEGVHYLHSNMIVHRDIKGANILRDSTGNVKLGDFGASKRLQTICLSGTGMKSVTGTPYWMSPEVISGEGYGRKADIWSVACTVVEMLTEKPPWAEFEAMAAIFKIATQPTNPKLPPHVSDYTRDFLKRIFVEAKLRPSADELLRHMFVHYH
Experimental: as §1, §2, §3

[8] = target: T8, FER (Homo sapiens, UniProt P16591); assay: PanQinase kinase panel: FER; assay type: biochemical; details: read-out: INHIBITORY EFFECT @ 1 uM: FER
T8 construct: purchased Reaction Biology Europe GmbH
Experimental: as §1, §2, §3

[9] = target: T9, TRKB (Homo sapiens, UniProt Q16620); assay: PanQinase kinase panel: TRKB; assay type: biochemical; details: read-out: INHIBITORY EFFECT @ 1 uM: TRKB
T9 construct: purchased Reaction Biology Europe GmbH
Experimental: as §1, §2, §3

[10] = target: BTK (Homo sapiens, UniProt Q06187); assay: PanQinase kinase panel: BTK; assay type: biochemical; parameters: purchased Reaction Biology Europe GmbH
Experimental: as §1, §2
(§4) As part of the data evaluation the low control of each kinase was subtracted from the high control value as well as from their corresponding “compound values”.

[11] = system: GBM-U251MG; assay: GBM cell proliferation, U251MG (cell-based cancer efficacy assays); details: Homo sapiens, U-251; Table 6B
[12] = target: T10, SRC (Homo sapiens, UniProt P12931); assay: PanQinase kinase panel: SRC; assay type: biochemical; details: read-out: INHIBITORY EFFECT @ 1 uM: SRC
T10 construct: purchased Reaction Biology Europe GmbH
Experimental: as §1, §2, §4

[13] = target: T11, YES (Homo sapiens, UniProt P07947); assay: PanQinase kinase panel: YES; assay type: biochemical; details: read-out: INHIBITORY EFFECT @ 1 uM: YES
T11 construct: purchased Reaction Biology Europe GmbH
Experimental: as §1, §2, §4

[14] = target: T12, ABL2 (Homo sapiens, UniProt P42684); assay: PanQinase kinase panel: ABL2; assay type: biochemical
T12 construct: purchased Reaction Biology Europe GmbH
Experimental: as §1, §2, §3

[15] = target: T13, SIK2 (Homo sapiens, UniProt Q9H0K1); assay: PanQinase kinase panel: SIK2; assay type: biochemical
T13 construct: purchased Reaction Biology Europe GmbH
Experimental: as §1, §2, §3

[16] = read-out: INHIBITORY EFFECT @ 1 uM: BTK
[17] = read-out: INHIBITORY EFFECT @ 1 uM: ABL2
[18] = read-out: INHIBITORY EFFECT @ 1 uM: SIK2

T12 sequence (P42684 whole entry): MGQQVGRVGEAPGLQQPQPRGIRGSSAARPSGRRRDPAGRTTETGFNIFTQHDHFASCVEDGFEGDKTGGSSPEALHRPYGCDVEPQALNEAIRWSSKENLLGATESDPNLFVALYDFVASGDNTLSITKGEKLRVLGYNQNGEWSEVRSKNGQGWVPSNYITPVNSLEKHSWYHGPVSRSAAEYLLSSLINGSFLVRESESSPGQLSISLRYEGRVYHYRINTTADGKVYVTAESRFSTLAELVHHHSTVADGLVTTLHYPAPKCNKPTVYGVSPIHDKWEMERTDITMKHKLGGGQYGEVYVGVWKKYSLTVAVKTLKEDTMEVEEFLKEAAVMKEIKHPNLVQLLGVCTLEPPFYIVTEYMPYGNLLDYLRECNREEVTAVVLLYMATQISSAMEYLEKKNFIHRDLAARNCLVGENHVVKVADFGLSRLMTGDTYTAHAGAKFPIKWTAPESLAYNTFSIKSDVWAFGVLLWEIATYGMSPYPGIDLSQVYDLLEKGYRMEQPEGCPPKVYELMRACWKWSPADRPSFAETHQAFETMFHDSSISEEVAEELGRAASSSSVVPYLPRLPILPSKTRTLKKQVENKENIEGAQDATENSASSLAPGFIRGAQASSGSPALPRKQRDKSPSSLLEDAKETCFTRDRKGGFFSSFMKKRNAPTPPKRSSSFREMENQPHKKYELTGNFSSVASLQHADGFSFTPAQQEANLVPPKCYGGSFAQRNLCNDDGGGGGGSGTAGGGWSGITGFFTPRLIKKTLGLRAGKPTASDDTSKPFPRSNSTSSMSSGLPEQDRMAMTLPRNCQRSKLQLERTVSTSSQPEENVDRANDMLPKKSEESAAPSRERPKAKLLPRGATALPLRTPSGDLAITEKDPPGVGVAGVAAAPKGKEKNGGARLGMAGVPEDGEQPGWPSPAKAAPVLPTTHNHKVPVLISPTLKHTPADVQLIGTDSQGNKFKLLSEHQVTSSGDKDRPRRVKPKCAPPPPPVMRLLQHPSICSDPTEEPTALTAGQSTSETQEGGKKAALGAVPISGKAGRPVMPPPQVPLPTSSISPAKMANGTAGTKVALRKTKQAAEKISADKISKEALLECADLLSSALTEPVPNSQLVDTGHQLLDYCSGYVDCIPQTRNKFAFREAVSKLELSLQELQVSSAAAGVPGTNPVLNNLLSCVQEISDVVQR
T9 sequence (Q16620 32-822): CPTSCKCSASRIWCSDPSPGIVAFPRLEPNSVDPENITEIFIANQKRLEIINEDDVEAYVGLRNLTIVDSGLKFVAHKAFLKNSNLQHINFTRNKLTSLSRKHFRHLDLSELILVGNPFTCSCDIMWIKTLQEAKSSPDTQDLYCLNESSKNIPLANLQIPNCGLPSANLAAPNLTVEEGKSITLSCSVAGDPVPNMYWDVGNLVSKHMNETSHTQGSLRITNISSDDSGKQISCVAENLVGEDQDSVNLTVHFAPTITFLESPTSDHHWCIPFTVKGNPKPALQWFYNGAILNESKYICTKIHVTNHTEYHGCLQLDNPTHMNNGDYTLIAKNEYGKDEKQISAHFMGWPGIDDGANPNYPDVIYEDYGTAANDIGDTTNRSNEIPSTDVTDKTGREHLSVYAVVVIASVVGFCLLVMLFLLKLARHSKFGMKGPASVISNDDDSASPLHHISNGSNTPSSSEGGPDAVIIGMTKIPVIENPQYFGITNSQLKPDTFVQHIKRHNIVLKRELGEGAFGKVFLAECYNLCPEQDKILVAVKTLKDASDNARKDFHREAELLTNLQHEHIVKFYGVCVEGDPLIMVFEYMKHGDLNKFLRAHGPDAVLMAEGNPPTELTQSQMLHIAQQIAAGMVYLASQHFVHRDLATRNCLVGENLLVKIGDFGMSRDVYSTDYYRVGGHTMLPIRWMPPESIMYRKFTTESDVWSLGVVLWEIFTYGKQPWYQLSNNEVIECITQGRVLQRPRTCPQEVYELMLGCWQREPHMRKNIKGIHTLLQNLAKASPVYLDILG
T2 sequence (P07332 whole entry): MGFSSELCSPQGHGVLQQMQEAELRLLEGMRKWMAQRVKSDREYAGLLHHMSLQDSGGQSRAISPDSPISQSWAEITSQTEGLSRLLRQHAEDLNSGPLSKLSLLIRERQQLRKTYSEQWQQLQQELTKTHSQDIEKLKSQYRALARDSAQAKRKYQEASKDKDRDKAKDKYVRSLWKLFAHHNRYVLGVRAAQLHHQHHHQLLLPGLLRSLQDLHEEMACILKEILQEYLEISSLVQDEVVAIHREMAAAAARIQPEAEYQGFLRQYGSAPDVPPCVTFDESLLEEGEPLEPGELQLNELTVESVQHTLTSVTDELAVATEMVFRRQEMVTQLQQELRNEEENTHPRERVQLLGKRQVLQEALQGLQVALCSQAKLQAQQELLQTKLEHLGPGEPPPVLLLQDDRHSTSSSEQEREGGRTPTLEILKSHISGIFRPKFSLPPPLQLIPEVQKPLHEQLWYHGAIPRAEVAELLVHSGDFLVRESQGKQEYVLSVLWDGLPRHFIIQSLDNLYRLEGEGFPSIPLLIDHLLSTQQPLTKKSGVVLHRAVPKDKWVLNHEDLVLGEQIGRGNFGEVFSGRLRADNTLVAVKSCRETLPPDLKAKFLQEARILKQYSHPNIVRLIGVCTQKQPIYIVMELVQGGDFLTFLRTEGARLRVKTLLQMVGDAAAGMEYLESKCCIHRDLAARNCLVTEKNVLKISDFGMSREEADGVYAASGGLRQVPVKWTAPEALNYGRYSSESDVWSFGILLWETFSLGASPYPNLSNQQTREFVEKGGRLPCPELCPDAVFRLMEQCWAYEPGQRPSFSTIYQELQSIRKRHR
T3 sequence (P07948 whole entry): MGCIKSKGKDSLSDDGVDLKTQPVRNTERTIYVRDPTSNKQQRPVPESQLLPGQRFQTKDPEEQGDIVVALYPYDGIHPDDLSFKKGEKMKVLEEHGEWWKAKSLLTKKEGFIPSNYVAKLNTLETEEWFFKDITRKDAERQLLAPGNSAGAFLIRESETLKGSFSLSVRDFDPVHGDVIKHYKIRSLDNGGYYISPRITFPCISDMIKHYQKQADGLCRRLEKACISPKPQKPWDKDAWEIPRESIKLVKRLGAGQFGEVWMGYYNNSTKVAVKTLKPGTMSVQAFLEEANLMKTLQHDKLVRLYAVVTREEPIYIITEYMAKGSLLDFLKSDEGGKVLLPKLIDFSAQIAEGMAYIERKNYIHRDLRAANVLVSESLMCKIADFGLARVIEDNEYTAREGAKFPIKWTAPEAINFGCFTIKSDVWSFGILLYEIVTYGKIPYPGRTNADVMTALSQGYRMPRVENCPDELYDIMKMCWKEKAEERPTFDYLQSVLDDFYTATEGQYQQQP
T6 sequence (P06213 28-1382): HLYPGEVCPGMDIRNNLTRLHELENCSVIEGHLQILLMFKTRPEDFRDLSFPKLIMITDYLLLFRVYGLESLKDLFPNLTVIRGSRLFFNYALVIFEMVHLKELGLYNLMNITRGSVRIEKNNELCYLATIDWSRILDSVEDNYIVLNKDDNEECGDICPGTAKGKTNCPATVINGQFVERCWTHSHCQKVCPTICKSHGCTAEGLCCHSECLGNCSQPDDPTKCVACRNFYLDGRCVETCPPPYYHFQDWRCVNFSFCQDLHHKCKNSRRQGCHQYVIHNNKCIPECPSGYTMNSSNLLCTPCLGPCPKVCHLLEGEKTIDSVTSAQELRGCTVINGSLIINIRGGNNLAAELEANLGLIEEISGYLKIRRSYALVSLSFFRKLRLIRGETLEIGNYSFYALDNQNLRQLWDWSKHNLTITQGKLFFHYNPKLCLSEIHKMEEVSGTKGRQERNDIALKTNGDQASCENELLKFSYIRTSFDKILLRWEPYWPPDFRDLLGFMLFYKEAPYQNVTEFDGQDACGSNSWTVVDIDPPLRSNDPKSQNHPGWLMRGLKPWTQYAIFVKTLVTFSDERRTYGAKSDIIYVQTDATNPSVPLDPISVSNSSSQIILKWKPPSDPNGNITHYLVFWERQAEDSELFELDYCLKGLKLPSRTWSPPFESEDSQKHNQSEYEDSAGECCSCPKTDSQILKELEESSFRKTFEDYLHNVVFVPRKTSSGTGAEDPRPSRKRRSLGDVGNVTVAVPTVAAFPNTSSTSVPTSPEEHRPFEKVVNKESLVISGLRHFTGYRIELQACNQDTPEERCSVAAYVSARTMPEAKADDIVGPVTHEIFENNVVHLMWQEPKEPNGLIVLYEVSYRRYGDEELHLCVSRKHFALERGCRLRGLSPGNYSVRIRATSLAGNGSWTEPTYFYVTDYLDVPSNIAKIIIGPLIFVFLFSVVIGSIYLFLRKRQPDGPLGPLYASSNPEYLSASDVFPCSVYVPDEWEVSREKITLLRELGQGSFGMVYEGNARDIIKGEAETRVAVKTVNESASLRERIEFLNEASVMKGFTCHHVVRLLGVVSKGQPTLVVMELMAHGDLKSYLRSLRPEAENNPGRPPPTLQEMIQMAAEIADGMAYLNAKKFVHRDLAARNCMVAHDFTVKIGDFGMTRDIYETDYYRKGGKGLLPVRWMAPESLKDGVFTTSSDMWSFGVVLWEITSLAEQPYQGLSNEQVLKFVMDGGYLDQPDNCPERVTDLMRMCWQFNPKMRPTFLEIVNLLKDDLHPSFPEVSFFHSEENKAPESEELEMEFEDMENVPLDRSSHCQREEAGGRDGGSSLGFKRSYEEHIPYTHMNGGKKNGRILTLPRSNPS

Row | SMILES | inhibition at 1 µM [1] | inhibition at 1 µM [2] | inhibition at 1 µM [3] | inhibition at 1 µM [4] | inhibition at 1 µM [5] | inhibition at 1 µM [6] | inhibition at 1 µM [7] | inhibition at 1 µM [8] | inhibition at 1 µM [9] | inhibition at 1 µM [10, 16] | Emax [11] | IC50 [11] | inhibition at 1 µM [12] | inhibition at 1 µM [13] | inhibition at 1 µM ([14]; at 1 μM, read-out: inhibition of ABL2) | inhibition at 1 µM [14, 17] | inhibition at 1 µM ([10]; 1 μM, read-out: inhibitor effect on BTK) | inhibition at 1 µM ([15]; at 1 μM, read-out: inhibition of SIK2) | inhibition at 1 µM [15, 18]
1 | O=C(c1ccc(Oc2ccccc2)cc1Cl)c1c[nH]c2ncnc(N[C@@H]3CC[C@@H](CO)OC3)c12 [ARQ-531, (2-chloro-4-phenoxyphenyl) (4-(((3R,6S)-6-(hydroxymethyl)tetrahydro-2H-pyran-3-yl)amino)-7H-pyrrolo[2,3-d]pyrimidin-5-yl) methanone] | 50 to 69% | 50 to 69% | 70 to 89% | 70 to 89% | 70 to 89% | 70 to 89% | 70 to 89% | 70 to 89% | < 50% | 90 to 100% |  |  |  |  |  |  |  |  | 
2 | Cc1cccnc1[C@H]1CCC[C@@H](c2ncccc2C)N1CCN1CCN(C(=O)c2ccc(-c3cc4c(-c5cccc(NC(=O)c6ccccc6)c5C)ncnc4[nH]3)cc2)CC1 [Compound I-10, N-(3-(6-(4-(4-(2-((2R,6S)-2,6-bis(3-methylpyridin-2-yl)piperidin-1-yl)ethyl)piperazine-1-carbonyl)phenyl)-7H-pyrrolo[2,3-d]pyrimidin-4-yl)-2-methylphenyl)benzamide] | < 50% | < 50% | < 50% | < 50% | < 50% | < 50% | < 50% | < 50% | < 50% | 90 to 100% | 98% | 2.12 µM | < 50% | < 50% | 50 to 89% | 70 to 89% | ≥ 90% | 50 to 89% | 50 to 69%
3 | Cc1cc(-c2ccnc(Nc3cnn(CCN4[C@@H](c5ncccc5C)CCC[C@H]4c4ncccc4C)c3)n2)ccc1CNC(=O)N1CC(OC(C)C)C1 [Compound I-11] |  |  |  |  |  |  |  |  |  |  | 82% | 0.93 µM |  |  |  |  |  |  | 
4 | COc1ccc(F)cc1C(=O)NCc1ccc(-c2nn([C@@H](C)C(F)(F)F)c(N)c2C(N)=O)cc1 [LOXO-305, pirtobrutinib] | < 50% | < 50% | < 50% | < 50% | < 50% | < 50% | < 50% | < 50% | 50 to 69% | 90 to 100% |  |  | < 50% | < 50% |  | < 50% |  |  | < 50%
5 | C=CC(=O)N1CCC([C@@H]2CCNc3c(C(N)=O)c(-c4ccc(Oc5ccccc5)cc4)nn32)CC1 [Zanubrutinib, (7S)-2-(4-phenoxyphenyl)-7-(1-prop-2-enoylpiperidin-4-yl)-4,5,6,7-tetrahydropyrazolo[1,5-a]pyrimidine-3-carboxamide] | < 50% | < 50% |  | < 50% | 50 to 69% | < 50% | < 50% | < 50% | < 50% |  |  |  |  |  |  | < 50% |  |  | < 50%

From patent publication US20250326753A1, “DUAL CXCR4-BTK INHIBITORS” (X4 Pharmaceuticals, Inc., priority 2022, published 2025)
